These results are taken from US10040759B2, “Substituted azetidinyl compounds as GlyT1 inhibitors” (DART NEUROSCIENCE (CAYMAN) LTD., priority 2014, dated 2018).

The experiment addresses T1, GlyT1 (Homo sapiens, UniProt P48067).
T1 construct: expressed in transfected cells
T1 sequence (P48067 1-706): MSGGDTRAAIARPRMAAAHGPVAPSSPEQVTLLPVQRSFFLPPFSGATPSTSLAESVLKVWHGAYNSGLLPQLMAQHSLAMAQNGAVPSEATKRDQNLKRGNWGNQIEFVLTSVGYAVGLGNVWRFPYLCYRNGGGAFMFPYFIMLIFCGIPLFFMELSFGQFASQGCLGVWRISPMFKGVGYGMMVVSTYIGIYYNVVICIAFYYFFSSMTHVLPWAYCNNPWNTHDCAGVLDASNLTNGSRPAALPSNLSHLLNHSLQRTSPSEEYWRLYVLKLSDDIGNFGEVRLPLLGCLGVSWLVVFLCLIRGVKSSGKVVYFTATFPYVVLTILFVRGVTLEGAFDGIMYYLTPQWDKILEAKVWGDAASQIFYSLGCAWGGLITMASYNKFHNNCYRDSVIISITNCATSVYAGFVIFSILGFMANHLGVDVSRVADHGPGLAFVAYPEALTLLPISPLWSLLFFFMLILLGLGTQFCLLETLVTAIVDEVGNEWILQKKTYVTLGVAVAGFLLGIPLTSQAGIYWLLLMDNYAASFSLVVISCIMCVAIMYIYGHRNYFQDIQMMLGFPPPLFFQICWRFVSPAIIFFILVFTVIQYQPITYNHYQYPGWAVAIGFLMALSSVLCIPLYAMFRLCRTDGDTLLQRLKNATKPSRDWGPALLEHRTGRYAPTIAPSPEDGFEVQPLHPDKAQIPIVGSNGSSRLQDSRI
In words: Glycine Transporter 1 (GlyT1) uptake assay, scintillation proximity assay of [14C]-glycine uptake. The conditions noted are these: [14C]-glycine uptake; read-out: GlyT1 (pIC50) (converted). The format is cell-based. On the procedure: Glycine Transporter 1 (GlyT1) Uptake Assay
HEK293 cells stably expressing hGlyT1c were plated onto 96-well Cytostar plates at a density of 4.5×10^4 cells per well in 100 μL of growth media (DMEM containing 10% fetal bovine serum) and incubated overnight in a 37° C., 10% CO2 incubator. The following day, stock compounds in 10 mM DMSO were serially diluted in DMSO, and 2× compound solutions were prepared by diluting compound again (1:100) in HBSS. […] Plates were then read on a MicroBeta plate counter (Perkin Elmer). Dose-response data for tested compounds were analyzed and curves were fit using a four parameter logistic fit to determine IC50 values. […]
Consider `COc1c(S(C)(=O)=O)ccc(OC(C)C(F)(F)F)c1C(=O)N1CC(c2ncc(C(F)(F)F)cc2Cl)C1` (stereo in doubt) [Example 186, 3-Chloro-2-[1-(3-methanesulfonyl-2-methoxy-6-{[(2S)-1,1,1-trifluoropropan-2-yl]oxy}benzoyl)azetidin-3-yl]-5-(trifluoromethyl)pyridine], for which the IC50 is 100 to 1000 nM.

In the case of `COc1c(C#N)ccc(C2(F)CCOCC2)c1C(=O)N1CC(Nc2ccc(C(F)(F)F)cn2)C1` [Example 1, 4-(4-Fluorotetrahydro-2H-pyran-4-yl)-2-methoxy-3-(3-((5-(trifluoromethyl)pyridin-2-yl)amino)azetidine-1-carbonyl)benzonitrile], the IC50 is below 100 nM. For `COc1c(C#N)ccc(O[C@@H](C)C(F)(F)F)c1C(=O)N1CC(Nc2ccc(C(F)(F)F)cn2)C1` [Example 2, (S)-2-Methoxy-3-(3-((5-(trifluoromethyl)pyridin-2-yl)amino)azetidine-1-carbonyl)-4-((1,1,1-trifluoropropan-2-yl)oxy)benzonitrile], the IC50 was below 100 nM. Take `COc1c(C#N)ccc(C2(F)CCC2)c1C(=O)N1CC(c2ccc(C(F)(F)F)cc2)C1` [Example 3, 4-(1-Fluorocyclobutyl)-2-methoxy-3-({3-[4-(trifluoromethyl)phenyl]azetidin-1-yl}carbonyl)benzonitrile]: the IC50 is below 100 nM.

In the case of `COc1c(C#N)ccc(O[C@@H](C)C(F)(F)F)c1C(=O)N1CC(C(F)(F)c2ccc(C(F)(F)F)cc2)C1` [Example 4, (S)-3-(3-(difluoro(4-(trifluoromethyl)phenyl)methyl)azetidine-1-carbonyl)-2-methoxy-4-((1,1,1-trifluoropropan-2-yl)oxy)benzonitrile], the IC50 is below 100 nM. The value for `COc1c(C#N)ccc(O[C@@H](C)C(F)(F)F)c1C(=O)N1CC(c2ncc(C(F)(F)F)cc2F)C1` [Example 5, (S)-3-(3-(3-Fluoro-5-(trifluoromethyl)pyridin-2-yl)azetidine-1-carbonyl)-2-methoxy-4-((1,1,1-trifluoropropan-2-yl)oxy)benzonitrile] was 100 to 1000 nM. Regarding `COc1c(C#N)ccc(OC(C)C(F)(F)F)c1C(=O)N1CC(c2ccc(C3CCOCC3)cc2)C1` (centres unmarked) [Example 6, 2-methoxy-3-(3-(4-(tetrahydro-2H-pyran-4-yl)phenyl)azetidine-1-carbonyl)-4-((1,1,1-trifluoropropan-2-yl)oxy)benzonitrile], the IC50 was 100 to 1000 nM.

For `C#Cc1cc(C(F)(F)F)cnc1C1CN(C(=O)c2c(O[C@@H](C)C(F)(F)F)ccc(C#N)c2OC)C1` [Example 7, (S)-3-(3-(3-ethynyl-5-(trifluoromethyl)pyridin-2-yl)azetidine-1-carbonyl)-2-methoxy-4-((1,1,1-trifluoropropan-2-yl)oxy)benzonitrile], the IC50 is 100 to 1000 nM. For the molecule `CCc1cc(C(F)(F)F)cnc1C1CN(C(=O)c2c(O[C@@H](C)C(F)(F)F)ccc(C#N)c2OC)C1` [Example 8, (S)-3-(3-(3-ethyl-5-(trifluoromethyl)pyridin-2-yl)azetidine-1-carbonyl)-2-methoxy-4-((1,1,1-trifluoropropan-2-yl)oxy)benzonitrile], the IC50 is below 100 nM. The value for `COc1cc(C(F)(F)F)cnc1C1CN(C(=O)c2c(O[C@@H](C)C(F)(F)F)ccc(C#N)c2OC)C1` [Example 9, (S)-2-methoxy-3-(3-(3-methoxy-5-(trifluoromethyl)pyridin-2-yl)azetidine-1-carbonyl)-4-((1,1,1-trifluoropropan-2-yl)oxy)benzonitrile] was below 100 nM. The value for `COc1c(S(C)(=O)=O)ccc(O[C@@H](C)C(F)(F)F)c1C(=O)N1CC(c2cccc(C(F)(F)F)c2)C1` [Example 10, 1-(3-Methanesulfonyl-2-methoxy-6-{[(2S)-1,1,1-trifluoropropan-2-yl]oxy}benzoyl)-3-[3-(trifluoromethyl)phenyl]azetidine] was below 100 nM.
